Legend:
catalase = assay: Catalase assay (H2O2 breakdown by leaf protein extract); type: biochemical, Arabidopsis thaliana; details: extracts of control plants germinated on 1 mM HU
Experimental: Plants were germinated on either control medium, medium with 1 mM HU or 6 μM 3-AT. Leaf tissue of 10 plants was ground in 200 μL extraction buffer (60 mM Tris (pH 6.9), 1 mM phenylmethylsulfonylfluoride, 10 mM DTT) on ice. The homogenate was centrifuged at 13,000 g for 15 minutes at 4° C. A total of 45 μg protein extract was mixed with potassium phosphate buffer (50 mM, pH 7.0) (Vandenabeele et al., 2004). After addition of 11.4 μL H2O2 (7.5%), the absorbance of the sample at 240 nm after 0 and 60 seconds was measured to determine catalase activity by H2O2 breakdown (Beers and Sizer, 1952; Vandenabeele et al., 2004).

Arabidopsis seedlings = assay: High-light transfer of seedlings: PSII efficiency (chlorophyll a fluorescence) and leaf appearance; type: in vivo, Arabidopsis thaliana
Experimental: Unless stated otherwise, plants of Arabidopsis thaliana (L.) Heyhn (ecotype Columbia), were grown under long-day conditions (16 hours of light, 8 hours of darkness) at 22° C. on half-strength Murashige and Skoog (MS) germination medium (Murashige and Skoog, 1962). Arabidopsis plants were treated with HU as described by Cools et al. (2011). […] For light treatments, one-week-old seedlings were transferred to continuous high-light conditions (growth rooms kept at 22° C. with 24-hour day/0-hour night cycles and a light intensity of 300-400 μmol m^−2 s^−1) for 2 days, and subsequently retransferred to low-light conditions.
Chlorophyll a fluorescence parameters were measured using the IMAGING PAM M-Series Chlorofyll Fluorescence (Walz) and associated software.

SIM/SMR promoters = assay: SIM/SMR promoter:GUS transcriptional reporter lines; type: in vivo, Arabidopsis thaliana
Source text: SIM/SMR promoter sequences were amplified from genomic DNA by PCR using the primers described in Table 5. The product fragments were created with the Pfu DNA Polymerase Kit (Promega, Catalog #M7745), and were cloned into a pDONR P4-Plr entry vector by BP recombination cloning and subsequently transferred into the pMK7S*NFml4GW,0 destination vector by LR cloning, resulting in a transcriptional fusion between the promoter of the SMR genes and the nlsGFP-GUS fusion gene (Karimi et al., 2007). For the overexpression constructs, the SMR coding regions were amplified using primers described in Table 5, and cloned into the pDONR221 vector by BP recombination cloning and subsequently transferred into the pK2GW7 destination vector (Kamimi et al., 2002) by LR cloning. All constructs were transferred into the Agrobacterium tumefaciens C58C1RifR strain harboring the pMP90 plasmid. The obtained Agrobacterium strains were used to generate stably transformed Arabidopsis lines with the floral dip transformation method (Clough and Bent, 1998). Transgenic plants were obtained on kanamycin-containing medium and later transferred to soil for optimal seed production.
Complete seedlings or tissue cuttings were stained in multiwell plates (Falcon 3043; Becton Dickinson). GUS assays were performed as described by Beeckman and Engler (1994). Samples mounted in lactic acid were observed and photographed with a stereomicroscope (Olympus BX51 microscope) or with a differential interference contrast (DIC) microscope (Leica).
To confirm involvement of SIM/SMR genes in the genotoxic stress response, transcriptional reporter lines containing the putative upstream promoter sequences were constructed for all. After selection of representative reporter lines, one-week-old seedlings were transferred to control medium, or medium supplemented with HU (resulting into stalled replication forks) or bleomycin (causing DSBs).

ZmSMRg and ZmSMRh = assay: qRT-PCR of maize SMR genes after HU treatment; type: in vivo; details: root tips and leaves
[1] = tested on: 5-day-old wild-type root tips; details: 2-mM hydroxyurea; cited from earlier work

H2O2 decomposition rate of plant extracts (catalase): reduced H2O2 decomposition rate
Compound: NC(=O)NO [HU, hydroxyurea]
maximum quantum efficiency of PSII (F′v/F′m) (Arabidopsis seedlings; one-week-old seedlings, 48 hours high light, in the presence of HU vs absence): decrease was even more pronounced
anthocyanin accumulation after transfer to high light (Arabidopsis seedlings; plants grown in the presence of HU, within 48 hours after transfer): accumulated anthocyanins in the young leaf tissue
transcriptional induction of SMR4, SMR5 and SMR7 reporters in the root meristem (SIM/SMR promoters; one-week-old seedlings, 1 mM HU, GUS assay 24 hours after transfer): strong transcriptional induction
induction of SMR5 and SMR7 GUS reporters in the proliferating leaf (SIM/SMR promoters; treated for 24 hours): induced
transcriptional induction of maize SMR genes ZmSMRg and ZmSMRh (ZmSMRg and ZmSMRh): strong up-regulation
HU 24 h/0 h fold change, AT1G07500 (Siamese-related 5) [1]: 7.863
HU 24 h/0 h fold change, AT1G09815 (polymerase delta 4) [1]: 2.354
HU 24 h/0 h fold change, AT1G12020 (unknown protein) [1]: 1.873
HU 24 h/0 h fold change, AT1G13330 (Hop2 homolog) [1]: 2.949
HU 24 h/0 h fold change, AT1G17460 (TRF-like 3) [1]: 2.378
HU 24 h/0 h fold change, AT1G30600 (Subtilase family protein) [1]: 1.711
HU 24 h/0 h fold change, AT1G31280 (Argonaute family protein) [1]: 1.866
HU 24 h/0 h fold change, AT1G49030 (PLAC8 family protein) [1]: 1.553
HU 24 h/0 h fold change, AT1G59660 (Nucleoporin autopeptidase) [1]: 1.860
HU 24 h/0 h fold change, AT1G76180 (Dehydrin family protein) [1]: 1.659
HU 24 h/0 h fold change, AT2G18600 (Ubiquitin-conjugating enzyme family protein) [1]: 5.521
HU 24 h/0 h fold change, AT2G21790 (ribonucleotide reductase 1) [1]: 2.514
HU 24 h/0 h fold change, AT2G30360 (SOS3-interacting protein 4) [1]: 2.274
HU 24 h/0 h fold change, AT2G31320 (poly(ADP-ribose) polymerase 2) [1]: 2.445
HU 24 h/0 h fold change, AT2G36910 (ATP binding cassette subfamily B1) [1]: 1.569
HU 24 h/0 h fold change, AT2G45460 (SMAD/FHA domain-containing protein) [1]: 2.378
HU 24 h/0 h fold change, AT2G46610 (RNA-binding RRM/RBD/RNP motifs family protein) [1]: 3.593
HU 24 h/0 h fold change, AT2G47680 (zinc finger CCCH type helicase family protein) [1]: 3.422
HU 24 h/0 h fold change, AT3G02400 (SMAD/FHA domain-containing protein) [1]: 2.479
HU 24 h/0 h fold change, AT3G07800 (Thymidine kinase) [1]: 7.160
HU 24 h/0 h fold change, AT3G12510 (MADS-box family protein) [1]: 2.266
HU 24 h/0 h fold change, AT3G15240 (Serine/threonine-protein kinase WNK-related) [1]: 1.790
HU 24 h/0 h fold change, AT3G20490 (unknown protein) [1]: 2.313
HU 24 h/0 h fold change, AT3G25250 (AGC kinase family protein) [1]: 1.853
HU 24 h/0 h fold change, AT3G27060 (Ferritin/ribonucleotide reductase-like family protein) [1]: 4.595
HU 24 h/0 h fold change, AT3G27620 (alternative oxidase 1C) [1]: 2.056
HU 24 h/0 h fold change, AT3G27950 (GDSL-like Lipase/Acylhydrolase superfamily protein) [1]: 1.641
HU 24 h/0 h fold change, AT3G42860 (zinc knuckle CCHC-type family protein) [1]: 2.445
HU 24 h/0 h fold change, AT3G45730 (unknown protein) [1]: 5.637
HU 24 h/0 h fold change, AT4G02390 (Poly(ADP-ribose) polymerase) [1]: 7.701
HU 24 h/0 h fold change, AT4G04750 (Major facilitator superfamily protein) [1]: 1.625
HU 24 h/0 h fold change, AT4G11740 (Ubiquitin-like superfamily protein) [1]: 1.653
HU 24 h/0 h fold change, AT4G15480 (UDP-Glycosyltransferase superfamily protein) [1]: 2.196
HU 24 h/0 h fold change, AT4G19130 (Replication factor-A protein 1-related) [1]: 2.305
HU 24 h/0 h fold change, AT4G21070 (Breast cancer susceptibility1) [1]: 10.375
HU 24 h/0 h fold change, AT4G22960 (Unknown function DUF544) [1]: 5.315
HU 24 h/0 h fold change, AT4G28950 (RHO-related protein from plants 9) [1]: 9.680
HU 24 h/0 h fold change, AT4G29170 (Mnd1 family protein) [1]: 2.898
HU 24 h/0 h fold change, AT4G35740 (DEAD/DEAH box RNA helicase family protein) [1]: 2.594
HU 24 h/0 h fold change, AT5G02220 (unknown protein; SMR4) [1]: 4.500
HU 24 h/0 h fold change, AT5G03780 (TRF-like 10) [1]: 7.111
HU 24 h/0 h fold change, AT5G06190 (unknown protein) [1]: 2.878
HU 24 h/0 h fold change, AT5G11460 (Protein of unknown function DUF581) [1]: 5.483
HU 24 h/0 h fold change, AT5G14920 (Gibberellin-regulated family protein) [1]: 2.789
HU 24 h/0 h fold change, AT5G14930 (senescence-associated gene 101) [1]: 1.542
HU 24 h/0 h fold change, AT5G20850 (RAS associated with diabetes protein 51) [1]: 4.643
HU 24 h/0 h fold change, AT5G24280 (Gamma-irradiation and mitomycin c induced 1) [1]: 4.823
HU 24 h/0 h fold change, AT5G25810 (Integrase-type DNA-binding superfamily protein) [1]: 1.558
HU 24 h/0 h fold change, AT5G40840 (Rad21/Rec8-like family protein) [1]: 3.375
HU 24 h/0 h fold change, AT5G48720 (X-ray induced transcript 1) [1]: 5.296
HU 24 h/0 h fold change, AT5G49480 (Ca2+-binding protein 1) [1]: 1.952
HU 24 h/0 h fold change, AT5G55490 (Gamete expressed protein 1) [1]: 1.670
HU 24 h/0 h fold change, AT5G60100 (pseudo-response regulator 3) [1]: 1.619
HU 24 h/0 h fold change, AT5G60250 (Zinc finger C3HC4-type RING finger family protein) [1]: 8.907
HU 24 h/0 h fold change, AT5G64060 (NAC domain containing protein 103) [1]: 5.579
HU 24 h/0 h fold change, AT5G66130 (RADIATION SENSITIVE 17) [1]: 2.888
HU 24 h/0 h fold change, AT5G66985 (unknown protein) [1]: 3.294
HU 24 h/0 h fold change, AT5G67360 (Subtilase family protein) [1]: 1.676
HU 24 h/0 h fold change, AT5G67460 (O-Glycosyl hydrolases family 17 protein) [1]: 2.799

From patent publication US20160272992A1, “PROTECTION OF PLANTS AGAINST OXIDATIVE STRESS” (priority 2013, published 2016)
